Measurements as given in patent publication US8457712B2, “Multi-mode medical device system and methods of manufacturing and using same” (Wisconsin Alumni Research Foundation, priority 2005, dated 2013).

Assay: Diffusion of a fluorescent probe in swollen gelatin gel by FRAP
Format: physicochemical
Text: To assess the stability of DTPA[Gd(III)] in the gelatin coating, the diffusion of a fluorescence probe in gelatin was studied by the technique of fluorescence recovery after photobleaching (FRAP). The instrument and data analysis scheme are described in Kim, S. H. and Yu, H., J. Phys. Chem. 1992, 96, 4034, which is hereby fully incorporated by reference. Fluorescein was used as the fluorescence probe due, in part, to its molecular size being roughly the same as that of DTPA[Gd(III)]. The focus of the study was to examine the possible retardation effects of gelatin concentration and cross-link density on the diffusion, which was determined at room temperature, i.e., below the gel point of gelatin. The diffusion of fluorescein probe slows down with the increase of gelatin concentration. The diffusion coefficient decreases from 1.5×10-10 to 9×10-12 […]-1 when the concentration of gelatin increases from 9% to 40%. […] Accordingly, the probe diffusion is more likely controlled by the concentration of gelatin rather than the cross-link density. On the other hand, the cross-link density may determine the swelling ratio of gelatin, i.e., the concentration of gelatin in aqueous solution. […]

SMILES	time to diffuse out of the gelatin coating (estimated for coating thickness 60 μm and diffusion coefficient 9×10-12 m2s-1)	fluorescence signal remaining in gelatin films (after soaking in water for 18 hours, including films not cross-linked)
O=C(O)CN(CCN(CC(=O)O)CC(=O)O)CCN(CC(=O)O)CC(=O)O [DTPA, diethylenetriaminepentaacetic acid]	about 67 seconds	
O=C1OC2(c3ccc(O)cc3Oc3cc(O)ccc32)c2ccccc21 [fluorescein]		still fluorescence signal
